Laboratory results: ChEMBL document CHEMBL3286379, “Design and synthesis of pyrimidine molecules endowed with thiazolidin-4-one as new anticancer agents” (Eur J Med Chem, 2014)

How the values were obtained:
NCI-H322M = experiment: Growth inhibition of human NCI-H322M cells assessed as cell growth at 10 uM after 48 hrs by sulforhodamine B assay relative to control; assay type: functional; details: read-out: Activity
NCI-H460 [1] = experiment: Growth inhibition of human NCI-H460 cells assessed as cell growth at 10 uM after 48 hrs by sulforhodamine B assay relative to control; assay type: functional; details: NCI-H460, 48 h, read-out: Activity
COLO 205 = experiment: Growth inhibition of human COLO205 cells assessed as cell growth at 10 uM after 48 hrs by sulforhodamine B assay relative to control; assay type: functional; details: COLO 205, 48 h, read-out: Activity
[2] = Growth inhibition of human HCT15 cells assessed as cell growth at 10 uM after 48 hrs by sulforhodamine B assay relative to control; assay type: functional; details: HCT-15, 48 h, read-out: Activity
KM12 = experiment: Growth inhibition of human KM12 cells assessed as cell growth at 10 uM after 48 hrs by sulforhodamine B assay relative to control; assay type: functional; details: KM12, 48 h, read-out: Activity
SW-620 = experiment: Growth inhibition of human SW620 cells assessed as cell growth at 10 uM after 48 hrs by sulforhodamine B assay relative to control; assay type: functional; details: SW-620, 48 h, read-out: Activity
SF-268 = experiment: Growth inhibition of human SF268 cells assessed as cell growth at 10 uM after 48 hrs by sulforhodamine B assay relative to control; assay type: functional; details: SF-268, 48 h, read-out: Activity
[3] = Growth inhibition of human SF295 cells assessed as cell growth at 10 uM after 48 hrs by sulforhodamine B assay relative to control; assay type: functional; details: SF-295, 48 h, read-out: Activity
[4] = Growth inhibition of human LOXIMVI cells assessed as cell growth at 10 uM after 48 hrs by sulforhodamine B assay relative to control; assay type: functional; details: LOX IMVI, read-out: Activity
Malme-3M = experiment: Growth inhibition of human MALME-3M cells assessed as cell growth at 10 uM after 48 hrs by sulforhodamine B assay relative to control; assay type: functional; details: read-out: Activity
SK-MEL-28 = experiment: Growth inhibition of human SK-MEL-28 cells assessed as cell growth at 10 uM after 48 hrs by sulforhodamine B assay relative to control; assay type: functional; details: SK-MEL-28, 48 h, read-out: Activity
IGROV-1 = experiment: Growth inhibition of human IGROV1 cells assessed as cell growth at 10 uM after 48 hrs by sulforhodamine B assay relative to control; assay type: functional; details: IGROV-1, 48 h, read-out: Activity
[5] = Growth inhibition of human OVCAR4 cells assessed as cell growth at 10 uM after 48 hrs by sulforhodamine B assay relative to control; assay type: functional; details: OVCAR-4, 48 h, read-out: Activity
[6] = Growth inhibition of human OVCAR5 cells assessed as cell growth at 10 uM after 48 hrs by sulforhodamine B assay relative to control; assay type: functional; details: OVCAR-5, 48 h, read-out: Activity
786-0 = experiment: Growth inhibition of human 786-0 cells assessed as cell growth at 10 uM after 48 hrs by sulforhodamine B assay relative to control; assay type: functional; details: 786-0, 48 h, read-out: Activity
A498 = experiment: Growth inhibition of human A498 cells assessed as cell growth at 10 uM after 48 hrs by sulforhodamine B assay relative to control; assay type: functional; details: A498, 48 h, read-out: Activity
ACHN = experiment: Growth inhibition of human ACHN cells assessed as cell growth at 10 uM after 48 hrs by sulforhodamine B assay relative to control; assay type: functional; details: read-out: Activity
CAKI-1 = experiment: Growth inhibition of human CAKI-1 cells assessed as cell growth at 10 uM after 48 hrs by sulforhodamine B assay relative to control; assay type: functional; details: CAKI-1, 48 h, read-out: Activity
[7] = Growth inhibition of human RXF393 cells assessed as cell growth at 10 uM after 48 hrs by sulforhodamine B assay relative to control; assay type: functional; details: RXF 393, 48 h, read-out: Activity
MCF7 = experiment: Growth inhibition of human MCF7 cells assessed as cell growth at 10 uM after 48 hrs by sulforhodamine B assay relative to control; assay type: functional; details: MCF7, 48 h, read-out: Activity
MDA-MB-231 = experiment: Growth inhibition of human MDA-MB-231 cells assessed as cell growth at 10 uM after 48 hrs by sulforhodamine B assay relative to control; assay type: functional; details: MDA-MB-231, 48 h, read-out: Activity
[8] = Growth inhibition of human Hs 578T cells assessed as cell growth at 10 uM after 48 hrs by sulforhodamine B assay relative to control; assay type: functional; details: read-out: Activity
T47D [9] = experiment: Growth inhibition of human T47D cells assessed as cell growth at 10 uM after 48 hrs by sulforhodamine B assay relative to control; assay type: functional; details: read-out: Activity
CCRF-CEM = experiment: Growth inhibition of human CCRF-CEM cells after 48 hrs by sulforhodamine B assay; assay type: functional
NCI-H460 [10] = experiment: Growth inhibition of human NCI-H460 cells after 48 hrs by sulforhodamine B assay; assay type: functional; details: NCI-H460, 48 h
M14 = experiment: Growth inhibition of human M14 cells after 48 hrs by sulforhodamine B assay; assay type: functional; details: M14, 48 h
[11] = Growth inhibition of human OVCAR3 cells after 48 hrs by sulforhodamine B assay; assay type: functional; details: OVCAR-3, 48 h
SK-OV-3 = experiment: Growth inhibition of human SKOV3 cells after 48 hrs by sulforhodamine B assay; assay type: functional; details: SK-OV-3, 48 h
T47D [12] = experiment: Growth inhibition of human T47D cells after 48 hrs by sulforhodamine B assay; assay type: functional
Rattus norvegicus = experiment: Hepatotoxicity in rat assessed as SGOT level at 0.12 mg/kg, po after 12 days (reference value: 140.23 +/- 1.39 U/mL); assay type: toxicity, organism-based; design: dose 0.12 mg/kg, route oral; details: in vivo, 288 h
[13] = Growth inhibition of human HOP92 cells assessed as cell growth at 10 uM after 48 hrs by sulforhodamine B assay relative to control; assay type: functional; details: HOP-92, 48 h, read-out: Activity
[14] = read-out: LC50 (the source's name)
[15] = read-out: pLC50 (the source's name) (converted)

In the case of `Nc1nc(-c2ccccc2Cl)cc(-c2ccc(Cl)cc2Cl)n1`, the growth at 10 µM (NCI-H322M) is reported as 89.5%, the growth at 10 µM (NCI-H460 [1]) is reported as 49.8% and the growth at 10 µM (COLO 205) is reported as 64.9%. The growth at 10 µM [2] was 90.2%, the growth at 10 µM (KM12) was 53.8% and the growth at 10 µM (SW-620) was 39%. For the same compound, the growth at 10 µM (SF-268) was 65.9%, the growth at 10 µM [3] was 38.7% and the growth at 10 µM [4] was 55.4%. It also gave a growth at 10 µM (Malme-3M) of 86.6%, a growth at 10 µM (SK-MEL-28) of 88% and a growth at 10 µM (IGROV-1) of 74.7%. For the same compound, the growth at 10 µM [5] was 79.6%, the growth at 10 µM [6] was 96.2% and the growth at 10 µM (786-0) was 90.2%. It also gave a growth at 10 µM (A498) of 53.7%, a growth at 10 µM (ACHN) of 86% and a growth at 10 µM (CAKI-1) of 68%. It also gave a growth at 10 µM [7] of 75.8%, a growth at 10 µM (MCF7) of 45.7% and a growth at 10 µM (MDA-MB-231) of 65%. For the same compound, the growth at 10 µM [8] was 61.9%, the growth at 10 µM (T47D [9]) was 63.7% and the GI50 (CCRF-CEM; read-out: GI50) was 4.17 µM. The CC50 (CCRF-CEM; [14]) was > 100 µM, the TGI (CCRF-CEM; read-out: TGI) was > 100 µM and the GI50 (CCRF-CEM; read-out: pGI50 (converted)) was 4.17 µM. For the same compound, the CC50 (CCRF-CEM; [15]) was > 100 µM, the TGI (CCRF-CEM; read-out: pTGI) was > 100 µM and the GI50 (NCI-H460 [10]; read-out: GI50) was 3.31 µM. The CC50 (NCI-H460 [10]; [14]) was > 100 µM, the TGI (NCI-H460 [10]; read-out: TGI) was 23.1 µM and the GI50 (NCI-H460 [10]; read-out: pGI50 (converted)) was 3.31 µM. For the same compound, the CC50 (NCI-H460 [10]; [15]) was > 100 µM, the TGI (NCI-H460 [10]; read-out: pTGI (converted)) was 22.9 µM and the GI50 (M14; read-out: GI50) was 5.95 µM. For the same compound, the CC50 (M14; [14]) was > 100 µM, the TGI (M14; read-out: TGI) was > 100 µM and the GI50 (M14; read-out: pGI50 (converted)) was 5.89 µM. For the same compound, the CC50 (M14; [15]) was > 100 µM, the TGI (M14; read-out: pTGI) was > 100 µM and the GI50 ([11]; read-out: GI50) was 4.05 µM. The CC50 [11, 14] was > 100 µM, the TGI ([11]; read-out: TGI) was 20.7 µM and the GI50 ([11]; read-out: pGI50 (converted)) was 4.07 µM. The CC50 [11, 15] was > 100 µM, the TGI ([11]; read-out: pTGI (converted)) was 20.9 µM and the GI50 (SK-OV-3; read-out: GI50) was 10.1 µM. For the same compound, the CC50 (SK-OV-3; [14]) was > 100 µM, the TGI (SK-OV-3; read-out: TGI) was 62.3 µM and the GI50 (SK-OV-3; read-out: pGI50 (converted)) was 10 µM. For the same compound, the CC50 (SK-OV-3; [15]) was > 100 µM, the TGI (SK-OV-3; read-out: pTGI (converted)) was 61.7 µM and the GI50 (T47D [12]; read-out: GI50) was 6.58 µM. The CC50 (T47D [12]; [14]) was > 100 µM, the TGI (T47D [12]; read-out: TGI) was > 100 µM and the GI50 (T47D [12]; read-out: pGI50 (converted)) was 6.61 µM. The CC50 (T47D [12]; [15]) was > 100 µM, the TGI (T47D [12]; read-out: pTGI) was > 100 µM and the Activity (Rattus norvegicus) was 133.47 U/ml. For the same compound, the growth at 10 µM [13] was 76.2%.
For `O=C1CS/C(=N\c2nc(-c3ccccc3Cl)cc(-c3ccc(Cl)cc3Cl)n2)N1`, the growth at 10 µM (NCI-H322M) was 94.9%, the growth at 10 µM (NCI-H460 [1]) was 103% and the growth at 10 µM (COLO 205) was 100%. For the same compound, the growth at 10 µM [2] was 102%, the growth at 10 µM (KM12) was 97.7% and the growth at 10 µM (SW-620) was 92.9%. It also gave a growth at 10 µM (SF-268) of 92.2%, a growth at 10 µM [3] of 116% and a growth at 10 µM [4] of 90.4%. The growth at 10 µM (Malme-3M) was 87.3%, the growth at 10 µM (SK-MEL-28) was 102% and the growth at 10 µM (IGROV-1) was 98.2%. It also gave a growth at 10 µM [5] of 96.1%, a growth at 10 µM [6] of 108% and a growth at 10 µM (786-0) of 99.7%. The growth at 10 µM (A498) was 101%, the growth at 10 µM (ACHN) was 98.1% and the growth at 10 µM (CAKI-1) was 88.6%. For the same compound, the growth at 10 µM [7] was 111%, the growth at 10 µM (MCF7) was 87.2% and the growth at 10 µM (MDA-MB-231) was 88.8%. It also gave a growth at 10 µM [8] of 97.7%, a growth at 10 µM (T47D [9]) of 86.5% and a growth at 10 µM [13] of 84.6%.
`O=C1N/C(=N/c2nc(-c3ccccc3Cl)cc(-c3ccc(Cl)cc3Cl)n2)S/C1=C/c1ccc(Cl)cc1` gave a growth at 10 µM (NCI-H322M) of 78.1%, a growth at 10 µM (NCI-H460 [1]) of 87.2% and a growth at 10 µM (COLO 205) of 83.2%. The growth at 10 µM [2] was 90%, the growth at 10 µM (KM12) was 79.8% and the growth at 10 µM (SW-620) was 76.6%. The growth at 10 µM (SF-268) was 90.9%, the growth at 10 µM [3] was 48.6% and the growth at 10 µM [4] was 74.1%. For the same compound, the growth at 10 µM (Malme-3M) was 91.5%, the growth at 10 µM (SK-MEL-28) was 104% and the growth at 10 µM (IGROV-1) was 82.3%. It also gave a growth at 10 µM [5] of 81.9%, a growth at 10 µM [6] of 102% and a growth at 10 µM (786-0) of 100%. For the same compound, the growth at 10 µM (A498) was 76.2%, the growth at 10 µM (ACHN) was 91.6% and the growth at 10 µM (CAKI-1) was 97.2%. The growth at 10 µM [7] was 100%, the growth at 10 µM (MCF7) was 50.4% and the growth at 10 µM (MDA-MB-231) was 63.2%. It also gave a growth at 10 µM [8] of 91.9%, a growth at 10 µM (T47D [9]) of 60.9% and a growth at 10 µM [13] of 55.1%.
